Measurements: patent US9120749B2, “Quinoline derivatives and MELK inhibitors containing the same” (ONCOTHERAPY SCIENCE, INC., priority 2010, dated 2015)
Structures can show the parent of a compound that is named as a salt. Where two headings read alike, the source gives them in different places.

Experiments:
MELK = MELK (Homo sapiens, UniProt Q14680); assay: Kinase assay: MELK activity, phosphorylation of FITC-labeled histone H3 peptide measured by IMAP fluorescence polarization; type: biochemical; conditions: read-out: IC50 (μM) (kinase assay)
Method in brief: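 A FITC-labelled histone H3 peptide served as substrate, with compounds serially diluted to 1% DMSO final. Reactions were stopped with three volumes of IMAP progressive binding solution. After 0.5 h at room temperature, fluorescence polarization was read.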

22Rv1 cells = assay: Cell-based assay: anti-proliferative activity, Cell Counting Kit-8, 72 hours (22Rv1)
HT-1197 cells = assay: Cell-based assay: anti-proliferative activity, Cell Counting Kit-8, 72 hours (HT-1197, negative control without MELK expression); conditions: HT1197 cells (negative control, no MELK expression), 72 hours
Method in brief: (§1)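 T47D, A549 and BT-549 cells, with MELK-negative HT-1197 as control (MELK status checked by western blot), seeded at 2,000–3,000 cells/well. Growth measured by CCK-8 72 hours after inhibitor exposure; IC50 values calculated.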

A549 cells = assay: Cell-based assay: anti-proliferative activity, Cell Counting Kit-8, 72 hours (A549); conditions: 72 hours
Method in brief: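 A549 cells were seeded in 96-well plates and exposed to candidate inhibitors for 72 hours. Cell growth was then measured with Cell Counting Kit-8, and IC50 values were calculated from the resulting growth data.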

T47D cells = assay: Cell-based assay: anti-proliferative activity, Cell Counting Kit-8, 72 hours (T47D)
Method in brief: as §1

DU4475 cells = assay: Cell-based assay: anti-proliferative activity, Cell Counting Kit-8, 72 hours (DU4475)
[1] = MELK kinase assay, IMAP fluorescence polarization, 50 micro-M ATP

Sequence of MELK (Q14680 whole entry, looked up): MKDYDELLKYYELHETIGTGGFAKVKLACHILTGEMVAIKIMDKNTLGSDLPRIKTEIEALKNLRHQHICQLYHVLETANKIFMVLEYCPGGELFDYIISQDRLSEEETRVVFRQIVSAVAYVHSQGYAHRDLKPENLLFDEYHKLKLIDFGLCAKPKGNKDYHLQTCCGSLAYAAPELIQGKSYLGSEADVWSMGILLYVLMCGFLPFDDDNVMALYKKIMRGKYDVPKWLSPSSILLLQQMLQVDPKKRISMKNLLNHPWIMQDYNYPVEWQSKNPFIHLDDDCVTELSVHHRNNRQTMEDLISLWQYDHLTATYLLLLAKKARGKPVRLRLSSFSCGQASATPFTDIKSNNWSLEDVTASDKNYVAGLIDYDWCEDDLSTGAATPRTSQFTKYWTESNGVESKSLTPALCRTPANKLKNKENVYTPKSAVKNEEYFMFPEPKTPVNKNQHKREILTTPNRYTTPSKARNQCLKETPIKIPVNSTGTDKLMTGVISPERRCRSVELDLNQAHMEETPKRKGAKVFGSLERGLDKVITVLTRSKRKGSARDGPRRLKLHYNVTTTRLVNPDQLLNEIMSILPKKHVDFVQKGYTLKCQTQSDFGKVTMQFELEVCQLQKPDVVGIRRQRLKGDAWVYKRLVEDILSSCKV

SMILES	IC50 (MELK; [1]) [µM]	IC50 (22Rv1 cells) [µM]	IC50 (HT-1197 cells) [µM]	IC50 (A549 cells) [µM]	IC50 (T47D cells; 72 hours) [µM]	IC50 (DU4475 cells) [µM]	IC50 (MELK) [µM]	IC50 (22Rv1 cells; Homo sapiens, 22Rv1, 72 h) [µM]	IC50 (HT-1197 cells; Homo sapiens, HT1197, 72 h) [µM]	IC50 (A549 cells; Homo sapiens, A549, 72 h) [µM]	IC50 (T47D cells; Homo sapiens, T47D, 72 h) [µM]	IC50 (DU4475 cells; Homo sapiens, DU-4475, 72 h) [µM]
CN(C)CCN1CCC(Nc2c(C(=O)C3CC3)cnc3ccc(-c4cc(Cl)c(O)c(Cl)c4)cc23)CC1 [Example 820, cyclopropyl(6-(3,5-dichloro-4-hydroxyphenyl)-4-(1-(2-(dimethylamino)ethyl)piperidin-4-ylamino)quinolin-3-yl)methanone]	0.0018	0.82	2.9	0.46	0.32	0.15	–	–	–	–	–	–
COc1cc(-c2ccc3ncc(C(C)=O)c(N[C@H]4CC[C@H](CN5CCCC(N)C5)CC4)c3c2)cc(Cl)c1O (stereo partly drawn) [Example 809, 1-(4-(1R,4R)-4-((3-aminopiperidin-1-yl)methyl)cyclohexylamino)-6-(3-chloro-4-hydroxy-5-methoxyphenyl)quinolin-3-yl)ethanone hydrochloride]	–	–	–	–	–	–	0.016	2.6	10	3.1	4.6	10
CC(=O)c1cnc2ccc(-c3cc(Cl)c(O)c(Cl)c3)cc2c1N[C@H]1CC[C@H](CN2CCC(N)C2)CC1 (stereo partly drawn) [Example 779, 1-(4-(1R,4R)-4-((3-aminopyrrolidin-1-yl)methyl)cyclohexylamino)-6-(3,5-dichloro-4-hydroxyphenyl)quinolin-3-yl)ethanone hydrochloride]	–	–	–	–	–	–	0.0017	0.23	10	1	0.14	0.13
O=C(c1cnc2ccc(-c3cc(F)c(O)c(F)c3)cc2c1Nc1ccc(CN2CCCC2)nc1)C1CC1 [Example 795, cyclopropyl(6-(3,5-difluoro-4-hydroxyphenyl)-4-(6-(pyrrolidin-1-ylmethyl)pyridin-3-ylamino)quinolin-3-yl)methanone]	–	–	–	–	–	–	0.035	0.83	3.5	0.34	0.51	0.31
CNC1CCN(c2ccc(Nc3c(C(C)=O)cnc4ccc(-c5cc(Cl)c(O)c(Cl)c5)cc34)cn2)C1 (stereo not drawn) [Example 788, 1-(6-(3,5-dichloro-4-hydroxyphenyl)-4-((6-(3-(methylamino)pyrrolidin-1-yl)pyridin-3-yl)amino)quinolin-3-yl)ethanone trihydrochloride]	–	–	–	–	–	–	0.0017	0.1	8.6	0.16	0.071	0.07
CC(=O)c1cnc2ccc(-c3cc(F)c(O)c(Cl)c3)cc2c1Nc1cccc(CCN2CCN(C)CC2)c1 [Example 830, 1-(6-(3-chloro-5-fluoro-4-hydroxyphenyl)-4-(3-(2-(4-methylpiperazin-1-yl)ethyl)phenylamino)quinolin-3-yl)ethanone]	0.019	–	–	–	–	–	–	1.3	15	0.73	1.5	0.26
CC(=O)c1cnc2ccc(-c3cc(F)c(O)c(Cl)c3)cc2c1N[C@H]1CC[C@H](CN2CCN(C)CC2)CC1 [Example 781, 1-(6-(3-chloro-5-fluoro-4-hydroxyphenyl)-4-(1R,4R)-4-((4-methylpiperazin-1-yl)methyl)cyclohexylamino)quinolin-3-yl)ethanone hydrochloride]	–	–	–	–	–	–	0.013	0.34	3.3	0.2	0.1	0.19
CC(=O)c1cnc2ccc(-c3cc(Cl)c(O)c(Cl)c3)cc2c1NC1CCCN(CCN(C)C)C1 (stereo not drawn) [Example 850, 1-(6-(3,5-dichloro-4-hydroxyphenyl)-4-(1-(2-(dimethylamino)ethyl)piperidin-3-ylamino)quinolin-3-yl)ethanone]	0.0019	–	–	–	–	–	–	1.2	4	0.89	1.1	0.32
CC(=O)c1cnc2ccc(-c3cc(F)c(O)c(Cl)c3)cc2c1Nc1cnn(C2CCN(C)CC2)c1 [Example 805, 1-(6-(3-chloro-5-fluoro-4-hydroxyphenyl)-4-(1-(1-methylpiperidin-4-yl)-1H-pyrazol-4-ylamino)quinolin-3-yl)ethanone hydrochloride]	–	–	–	–	–	–	0.0028	0.32	2.4	0.34	0.17	0.11
COc1cc(-c2ccc3ncc(C(C)=O)c(N[C@H]4CC[C@H](CN5CCC[C@@H]5CO)CC4)c3c2)cc(Cl)c1O [Example 811]	–	–	–	–	–	–	0.0027	0.45	5.4	0.28	0.49	0.38
COc1cc(-c2ccc3ncc(C(C)=O)c(N[C@H]4CC[C@H](CN5CCN(C)CC5)CC4)c3c2)cc(Cl)c1O [Example 787, 1-(6-(3-chloro-4-hydroxy-5-methoxyphenyl)-4-(1R,4R)-4-((4-methylpiperazin-1-yl)methyl)cyclohexylamino)quinolin-3-yl)ethanone hydrochloride]	–	–	–	–	–	–	0.0058	0.72	5.2	0.44	0.48	2.7
